Data reported in patent US20180311161A1, “AMPHIPHILIC POLYMERS ENCAPSULATING THERAPEUTICALLY ACTIVE AGENTS” (TECHNION RESEARCH & DEVELOPMENT FOUNDATION LIMITED, priority 2015, published 2018).

Tests used:
[1] = Encapsulation of efavirenz in polymeric micelles (apparent solubility, solubility factor); format: physicochemical; details: 37° C.
Experimental: The encapsulation capacity of the micelles was studied with the antiretroviral efavirenz. For this, 1%, 3%, 5% and 10% w/v CS-N52 and 1% CS-N74 polymeric micelles were prepared and 2-10 mg of drug per mL of micellar suspension added. The suspension was magnetically stirred at 37° C. (48 h), filtered (1.2 μm, Minisart® NML cellulose acetate, Sartorius AG, Goettingen, Germany) to remove insoluble drug, the filtrate diluted (1/10) in distilled water and 10 mL extracted with dichloromethane (3×20 mL). The organic solution was evaporated under vacuum, re-dissolved in methanol and the absorbance measured in microplate spectrophotometer (λ=248 nm). Then, the EFV concentration was calculated by interpolation in a calibration curve in the range of 0.02-80 μg/mL (R^2>0.9999). Finally, the solubility factor (fs) was determined according to
where Sa is the apparent solubility of active agent (herein: efavirenz) in the polymeric micelles and Si is the intrinsic solubility of the active agent (efavirenz) in a polymer-free medium (7 μg/mL), at 37° C. Measurements were performed in triplicate and the results are expressed as the mean±S.D. Efavirenz-loaded micelles before and after ionotropic crosslinking were characterized for Dh, PDI and Z-potential by DLS (see above).

Caco2 cell line = test: In vitro cell compatibility, MTT method; format: cell-based; details: crosslinker, versus only-medium control (100% viability)
Experimental: Since these polymeric micelles are envisioned for the administration by mucosal routes, including the oral one, their cell compatibility before and after corona-crosslinking was evaluated in a Caco2 cell line (ATCC® HTB-37™) obtained from American Type Culture Collection (ATCC®, Manassas, Va., USA).
In exemplary embodiments, cells were cultured in Eagle's Minimum Essential Medium (EMEM, Life Technologies Corp., Carlsbad, Calif., USA) supplemented with L-glutamine, 10% heat-inactivated fetal bovine serum (FBS, Sigma-Aldrich) and penicillin/streptomycin (5 mL of a commercial mixture of 100 U/mL of penicillin+100 μg/mL streptomycin per 500 mL medium, Sigma-Aldrich) and maintained at 37° C. in a humidified 5% CO2 atmosphere and split 1:10 into fresh media every three-four days. Cells were harvested by trypsinization (trypsin-EDTA 0.25%, Sigma-Aldrich) and the number of live cells was quantified the trypan blue (1%, Sigma-Aldrich) exclusion assay and a Neubauer chamber. To determine the compatibility of the polymeric micelles (expressed as percentage with respect to a blank incubated with culture medium), cells were cultured in 96-well plates (5×10^3 cells/well) and allowed to attach over 72 h. The medium in each well was replaced by different samples (concentration between 0.1%, 0.3% and 0.5% in PBS+medium) and cells incubated over 4 and 24 h. […]

Si (intrinsic solubility in a polymer-free medium) [1]	SMILES	viability of Caco2 cells (MTT) (Caco2 cell line)
7 µg/mL	O=C1Nc2ccc(Cl)cc2[C@@](C#CC2CC2)(C(F)(F)F)O1 [efavirenz]	
	O=P(O)(O)OP(=O)(O)OP(=O)(O)O [TPP, sodium tripolyphosphate]	did not affect the viability of the cells
